Data taken from US20120016010A1, “RNA Interference Mediated Inhibition of BTB and CNC Homology 1, Basic Leucine Zipper Transcription Factor 1 (BACH1) Gene Expression Using Short Interfering Nucleic Acid (siNA)” (Merck Sharp & Dohme Corp, priority 2009, published 2012).

Experiments:
Type in all cases: cell-based
[1] = system: Bach1 mRNA; experiment: Initial screen: Bach1 mRNA knock-down in mouse NIH 3T3 cells (96-well transfection, quantitative RT-PCR); conditions: mouse NIH3T3 cells, n = 2, 24 hrs post-transfection, protocol 10 nM siNA
[2] = system: Bach1 mRNA; experiment: Initial screen: Bach1 mRNA knock-down in human A549 cells (96-well transfection, quantitative RT-PCR); conditions: for % KD: Bach1 mRNA, 10 nM siNA, human A549 cells, n = 2, mean ± S.D., normalized to GAPDH and non-targeting control, 24 hrs post-transfection; for % KD Bach1: Table 5, Bach1 mRNA screening data, A549 cells
[3] = system: HMOX1 mRNA; experiment: HMOX1 (HO-1) mRNA upregulation in human bronchial epithelial cells (NHBE); conditions: 48 hours post transfection, mean of 3 donors
Description: Human Bronchial Epithelial cells (NHBE cells) obtained from Lonza (Cat. No. CC-2540) were grown at 37deg in the presence of 5% CO2 and cultured in BEBM basal medium (Lonza, Cat. No. CC-3171) on Biocoat Collagen1 coated flasks (Becton Dickinson). NHBE cells were plated in collagen 1 coated plates and cultured in appropriate culture media. The cells were cultured for 24 hours after plating at 37 degrees in the presence of 5% CO2. siNAs were diluted in OptiMEM 1 to 1 uM and the transfection agent to 25 ug/ml. For formulation of the siNAs equal volumes of the diluted siNA and delivery lipid were combined and incubated for 20 minutes at room temperature. Cells were meanwhile trypsinised and resuspended in antibiotic free BEBM media at 150,000 cells/ml. 20 ul of the formulated siNA and 80 ul of BEBM media was added per well of a 96 well plate (6 replicates/data point/siNA concentration) so as to give a nine point dose range of the siNAs (100 nM, 30 nM, 10 nM, 3 nM, 1 nM, 0.3 nM, 0.1 nM, 0.03 nM, 0.01 nM). The time of incubation with the transfection-siNA complexes were 48 hours with one change of media at 24 hours. Total RNA was isolated from the cells in the 96-well plate format using the Automated SV96 Total RNA Isolation System (Promega) according to the manufacturer's instructions. The Biomek 2000 Laboratory Automation Workstation (Beckman Coulter) was used to apply the transfected cell lysates to a silica membrane. RNase-Free DNase I was then applied directly to the silica membrane to digest contaminating genomic DNA. The bound total RNA was further purified from contaminating salts, proteins and cellular impurities by simple washing steps. Finally, total RNA was eluted from the membrane by the addition of Nuclease-Free Water. A series of probes and primers were used for the detection of mRNA transcripts of Bach1, OAS1, IL8 and GAPDH (as control/normalisation) in the human cell lines. The assays were performed on an ABI 7900HT instrument according to the manufacturer's instructions. Primer Probe sets used: With Taqman data critical threshold values (Ct) were converted to copy numbers corresponding to the particular gene analysed in each well of the 384 well plate. Six identical wells were prepared in each plate for a given treatment. […] Relative abundance (aka relative expression) of a gene was determined by dividing the mean copy number of that gene with its GAPDH counterpart in that particular sample. EC50 values were calculated from the data using sigma plot. All calculations of the efficacy and potency of the siNAs were done relative to the non-targeting control siNA. Percentage knockdown was compared between the four lead siNA's. The data was analysed using an ANOVA test and then the p-values were corrected for multiple comparisons using the False Discovery Rate correction (FDR).

29947-DC (sense GGAAUCCUGCUUUCAGUUUTT; antisense AAACUGAAAGCAGGAUUCCUU; inverted abasic caps (B), 2'-modified nucleotides, further chemistry not given here)
% KD [1]: 46 ± 5.8%
% KD [2]: 83.4 ± 6.9%
% KD Bach1 [2]: 83.4 ± 6.9%
Maximum HMOX1 upregulation [3]: 1566%

29956-DC (sense GUCUGAGUGUCCGUGGUUATT; antisense UAACCACGGACACUCAGACUU; inverted abasic caps (B), 2'-modified nucleotides, further chemistry not given here)
% KD [1]: −14.5 ± 8.4%
% KD [2]: 75.8 ± 7.7%
% KD Bach1 [2]: 75.8 ± 7.7%
EC50 [3]: 33.1 nM
Maximum HMOX1 upregulation [3]: 2416%

29957-DC (sense GCAGUUACUUCCACUCAAGTT; antisense CUUGAGUGGAAGUAACUGCUU; inverted abasic end caps, TT overhangs, modified nucleotides, further chemistry not given here)
% KD [1]: 42.4 ± 1.2%
% KD [2]: 84.6 ± 5.4%
% KD Bach1 [2]: 84.6 ± 5.4%
EC50 [3]: 29.8 nM
Maximum HMOX1 upregulation [3]: 290%

29961-DC (sense CUACACUGCUAAACUGAUUTT; antisense AAUCAGUUUAGCAGUGUAGUU; inverted abasic end caps, TT overhangs, modified nucleotides, further chemistry not given here)
% KD [1]: −23.5 ± 4.6%
% KD [2]: 90 ± 1.3%
% KD Bach1 [2]: 90 ± 1.3%
EC50 [3]: 50.4 nM
Maximum HMOX1 upregulation [3]: 10266%

29964-DC (sense GAUUUGCAGGUGAUGUUAATT; antisense UUAACAUCACCUGCAAAUCUU; inverted abasic end caps, TT overhangs, modified nucleotides, further chemistry not given here)
% KD [1]: 19.6 ± 3.9%
% KD [2]: 90.1 ± 0.8%
% KD Bach1 [2]: 90.1 ± 0.8%
EC50 [3]: 30.3 nM
Maximum HMOX1 upregulation [3]: 4800%

29984-DC (sense GUUAAAGGAUUUGAACCUUTT; antisense AAGGUUCAAAUCCUUUAACUU; inverted abasic end caps, TT overhangs, modified nucleotides, further chemistry not given here)
% KD [1]: 50.5 ± 0.8%
% KD [2]: 66.2 ± 15.3%
Maximum HMOX1 upregulation [3]: 153%

29988-DC (sense AUUUGAACCUUUAAUUCAGTT; antisense CUGAAUUAAAGGUUCAAAUUU; inverted abasic end caps, TT overhangs, modified nucleotides, further chemistry not given here)
% KD [1]: 71.3 ± 8.9%
% KD [2]: 86.2 ± 3.1%
% KD Bach1 [2]: 86.2 ± 3.1%
EC50 [3]: 34.5 nM
Maximum HMOX1 upregulation [3]: 550%
